Assay results reported in patent US20150148234A1, “HERBICIDE-RESISTANT SUNFLOWER PLANTS WITH MULTIPLE HERBICIDE RESISTANT ALLELES OF AHASL1 AND METHODS OF USE” (NIDERA S.A., priority 2013, published 2015).

Tests used:
[1] = system: sunflower entry 9-line (GM40 restorer, A122T homo); assay: field phytotoxicity trial North Dakota 2006 (Example 3); assay type: in vivo
Description: (§1) • Spray volume: 10 gallons per acre (GPA) (or 100 liters/ha) for backpack sprayer or 20 GPA (or 200 liters/ha) for tractor mounted boom • Growth Stage at Herbicide Application: 2-4 leaves • Entry 15 (WT Maintainer line) was left unsprayed in all treatment blocks.
(§2) Phytotoxicity ratings were assessed at 7 and 21 days following herbicide application.
(§3) The data was subjected to an ANOVA analysis and the means from the 3 repetitions are presented in Table 7 (phytotoxicity at 7 days post-treatment) and Table 8 (phytotoxicity at 21 days post-treatment).

[2] = system: sunflower entry 15-hybrid (WT × GM40 restorer, A122T hetero); assay: as above; assay type: in vivo
Description: as §1, §2, §3

[3] = system: sunflower entry 10-hybrid (IMI CMS × GM40 restorer, A205V/A122T hetero/double); assay: as above; assay type: in vivo
Description: as §1, §2, §3

[4] = system: sunflower entry 6-hybrid (IMI CMS × IMI restorer, A205V homo); assay: as above; assay type: in vivo
Description: as §1, §2, §3

[5] = system: sunflower entry 3-hybrid (WT × IMI restorer, A205V hetero); assay: as above; assay type: in vivo
Description: as §1, §2, §3

[6] = system: sunflower entry 16-hybrid (WT × GM40 restorer, A122T hetero); assay: as above; assay type: in vivo
Description: as §1, §2, §3

[7] = system: sunflower entry 12-hybrid (IMI CMS × GM40 restorer, A205V/A122T hetero/double); assay: as above; assay type: in vivo
Description: as §1, §2, §3

[8] = system: sunflower entry 8-hybrid (WT × GM40 restorer, A122T hetero); assay: as above; assay type: in vivo
Description: as §1, §2, §3

[9] = system: sunflower entry 7-hybrid (WT-CMS × IMI restorer, A205V hetero); assay: as above; assay type: in vivo
Description: as §1, §2, §3

[10] = system: sunflower entry 13-hybrid (GM40 CMS × GM40 restorer, A122T homo); assay: as above; assay type: in vivo
Description: as §1, §2, §3

[11] = system: sunflower entry 1-hybrid (WT × IMI restorer, A205V hetero); assay: as above; assay type: in vivo
Description: as §1, §2, §3

[12] = system: sunflower entry 11-hybrid (GM40 CMS × IMI restorer, A205V/A122T hetero/double); assay: as above; assay type: in vivo
Description: as §1, §2, §3

[13] = system: sunflower entry 14-hybrid (GM40 CMS × GM40 restorer, A122T homo); assay: as above; assay type: in vivo
Description: as §1, §2, §3

[14] = system: sunflower entry 4-line (IMI Restorer, A205V homo); assay: as above; assay type: in vivo
Description: as §1, §2, §3

[15] = system: AHAS enzyme of A122T/A205V heterozygous hybrid (IA9 × R733); assay: AHAS enzyme activity assay, Set 1; assay type: biochemical, sunflower; conditions: 100 μM, Set 1 (FIG. 13)
Description: (§4) Twelve greenhouse grown sunflower plants from each of the lines depicted in Table 21 were bulked and subjected to an AHAS enzyme activity assay via the method of Singh et al. (1988) Anal. Biochem. 171:173-179. Each activity assay was repeated twice. Due to the large number of samples, the experiment was split into two sets (Table 21).
(§5) Young, actively growing leaves, from four week old plantlets, were ground in a mortar and pestle with liquid N2 and extracted with a buffer composed of 100 mM Pyruvate, 200 mM KH2PO4, 20 mM MgCl2, 2 mM thiamine pyrophosphate and […]. Plant extracts were then spun through a 10 mL Zeba™ TM desalt spin column (Pierce #89893) as per the manufacturer's recommendation. The inhibition assay was performed as described by Singh et al. (1988) Anal. Biochem. 171:173-179. Assays were conducted in a 96-well format. Fifty μl of inhibitor was added to each well containing 50 μl of soluble protein extract to give final concentrations of 0.78, 1.56, 3.125, 6.25, 12.5, 25, 50 and 100 μM imazamox or 0.78, 1.56, 3.125, 6.25, 12.5, 25, 50 and 100 μM imazapyr. Zero herbicide controls were also included for each line. Reactions were processed as outlined by Singh et al. (1988) Anal. Biochem. 171:173-179. Absorbance was measured at 530 nm. AHAS activity, expressed as the mean of the absorbance values for each treatment, was presented as a percentage of the mean of the zero-herbicide controls.

[16] = system: AHAS enzyme of A205V homozygous hybrid (IA9 × RHA426); assay: AHAS enzyme activity assay, Set 1; assay type: biochemical, sunflower; conditions: A205V homozygous hybrids; 100 μM; Set 1 (FIG. 13)
Description: as §4, §5

[17] = system: AHAS enzyme of A122T homozygous hybrid (cmsGM40 × R733); assay: AHAS enzyme activity assay, Set 1; assay type: biochemical, sunflower; conditions: 100 μM, Set 1 (FIG. 13)
Description: as §4, §5

[18] = 7 DAT, 50 g ai/ha imazamox + 0.25% NIS
[19] = 7 DAT, 100 g ai/ha imazamox + 0.25% NIS
[20] = 7 DAT, 200 g ai/ha imazamox + 0.25% NIS
[21] = 21 DAT, 50 g ai/ha imazamox + 0.25% NIS
[22] = 21 DAT, 100 g ai/ha imazamox + 0.25% NIS
[23] = 21 DAT, 200 g ai/ha imazamox + 0.25% NIS
[24] = 7 DAT, 160 g ai/ha imazapyr + 0.25% NIS
[25] = 21 DAT, 160 g ai/ha imazapyr + 0.25% NIS

COCc1cnc(C2=NC(C)(C(C)C)C(=O)N2)c(C(=O)O)c1 (stereo not shown) [imazamox]
Phytotoxicity Rating (% Crop Injury) [1, 18]: 1.7% | Phytotoxicity Rating (% Crop Injury) [1, 19]: 5.0% | Phytotoxicity Rating (% Crop Injury) [1, 20]: 10.0% | Phytotoxicity Rating (% Crop Injury) [1, 21]: 0.0% | Phytotoxicity Rating (% Crop Injury) [1, 22]: 0.0% | Phytotoxicity Rating (% Crop Injury) [1, 23]: 3.3% | Phytotoxicity Rating (% Crop Injury) [2, 18]: 10.0% | Phytotoxicity Rating (% Crop Injury) [2, 19]: 11.7% | Phytotoxicity Rating (% Crop Injury) [2, 20]: 16.7% | Phytotoxicity Rating (% Crop Injury) [2, 21]: 6.7% | Phytotoxicity Rating (% Crop Injury) [2, 22]: 11.7% | Phytotoxicity Rating (% Crop Injury) [2, 23]: 30.0% | Phytotoxicity Rating (% Crop Injury) [3, 18]: 3.3% | Phytotoxicity Rating (% Crop Injury) [3, 19]: 3.3% | Phytotoxicity Rating (% Crop Injury) [3, 20]: 10.0% | Phytotoxicity Rating (% Crop Injury) [3, 21]: 0.0% | Phytotoxicity Rating (% Crop Injury) [3, 22]: 0.0% | Phytotoxicity Rating (% Crop Injury) [3, 23]: 1.7% | Phytotoxicity Rating (% Crop Injury) [4, 18]: 5.0% | Phytotoxicity Rating (% Crop Injury) [4, 19]: 8.3% | Phytotoxicity Rating (% Crop Injury) [4, 20]: 26.7% | Phytotoxicity Rating (% Crop Injury) [4, 21]: 0.0% | Phytotoxicity Rating (% Crop Injury) [4, 22]: 3.3% | Phytotoxicity Rating (% Crop Injury) [4, 23]: 21.7% | Phytotoxicity Rating (% Crop Injury) [5, 18]: 11.7% | Phytotoxicity Rating (% Crop Injury) [5, 19]: 46.7% | Phytotoxicity Rating (% Crop Injury) [5, 20]: 60.0% | Phytotoxicity Rating (% Crop Injury) [5, 21]: 11.7% | Phytotoxicity Rating (% Crop Injury) [5, 22]: 46.7% | Phytotoxicity Rating (% Crop Injury) [5, 23]: 76.7% | Phytotoxicity Rating (% Crop Injury) [6, 18]: 10.0% | Phytotoxicity Rating (% Crop Injury) [6, 19]: 15.0% | Phytotoxicity Rating (% Crop Injury) [6, 20]: 23.3% | Phytotoxicity Rating (% Crop Injury) [6, 21]: 6.7% | Phytotoxicity Rating (% Crop Injury) [6, 22]: 16.7% | Phytotoxicity Rating (% Crop Injury) [6, 23]: 31.7% | Phytotoxicity Rating (% Crop Injury) [7, 18]: 10.0% | Phytotoxicity Rating (% Crop Injury) [7, 19]: 10.0% | Phytotoxicity Rating (% Crop Injury) [7, 20]: 11.7% | Phytotoxicity Rating (% Crop Injury) [7, 21]: 3.3% | Phytotoxicity Rating (% Crop Injury) [7, 22]: 3.3% | Phytotoxicity Rating (% Crop Injury) [7, 23]: 3.3% | Phytotoxicity Rating (% Crop Injury) [8, 18]: 13.3% | Phytotoxicity Rating (% Crop Injury) [8, 19]: 13.3% | Phytotoxicity Rating (% Crop Injury) [8, 20]: 25.0% | Phytotoxicity Rating (% Crop Injury) [8, 21]: 6.7% | Phytotoxicity Rating (% Crop Injury) [8, 22]: 11.7% | Phytotoxicity Rating (% Crop Injury) [8, 23]: 28.3% | Phytotoxicity Rating (% Crop Injury) [9, 18]: 13.3% | Phytotoxicity Rating (% Crop Injury) [9, 19]: 43.3% | Phytotoxicity Rating (% Crop Injury) [9, 20]: 56.7% | Phytotoxicity Rating (% Crop Injury) [9, 21]: 3.3% | Phytotoxicity Rating (% Crop Injury) [9, 22]: 40.0% | Phytotoxicity Rating (% Crop Injury) [9, 23]: 78.3% | Phytotoxicity Rating (% Crop Injury) [10, 18]: 3.3% | Phytotoxicity Rating (% Crop Injury) [10, 19]: 5.0% | Phytotoxicity Rating (% Crop Injury) [10, 20]: 10.0% | Phytotoxicity Rating (% Crop Injury) [10, 21]: 0.0% | Phytotoxicity Rating (% Crop Injury) [10, 22]: 1.7% | Phytotoxicity Rating (% Crop Injury) [10, 23]: 3.3% | Phytotoxicity Rating (% Crop Injury) [11, 18]: 8.3% | Phytotoxicity Rating (% Crop Injury) [11, 19]: 35.0% | Phytotoxicity Rating (% Crop Injury) [11, 20]: 48.3% | Phytotoxicity Rating (% Crop Injury) [11, 21]: 6.7% | Phytotoxicity Rating (% Crop Injury) [11, 22]: 25.0% | Phytotoxicity Rating (% Crop Injury) [11, 23]: 73.3% | Phytotoxicity Rating (% Crop Injury) [12, 18]: 0.0% | Phytotoxicity Rating (% Crop Injury) [12, 19]: 3.3% | Phytotoxicity Rating (% Crop Injury) [12, 20]: 11.7% | Phytotoxicity Rating (% Crop Injury) [12, 21]: 0.0% | Phytotoxicity Rating (% Crop Injury) [12, 22]: 0.0% | Phytotoxicity Rating (% Crop Injury) [12, 23]: 3.3% | Phytotoxicity Rating (% Crop Injury) [13, 18]: 5.0% | Phytotoxicity Rating (% Crop Injury) [13, 19]: 6.7% | Phytotoxicity Rating (% Crop Injury) [13, 20]: 11.7% | Phytotoxicity Rating (% Crop Injury) [13, 21]: 0.0% | Phytotoxicity Rating (% Crop Injury) [13, 22]: 3.3% | Phytotoxicity Rating (% Crop Injury) [13, 23]: 5.0% | Phytotoxicity Rating (% Crop Injury) [14, 18]: 6.7% | Phytotoxicity Rating (% Crop Injury) [14, 19]: 6.7% | Phytotoxicity Rating (% Crop Injury) [14, 20]: 18.3% | Phytotoxicity Rating (% Crop Injury) [14, 21]: 5.0% | Phytotoxicity Rating (% Crop Injury) [14, 22]: 6.7% | Phytotoxicity Rating (% Crop Injury) [14, 23]: 15.0% | AHAS activity, % of untreated control [15]: 59% | AHAS activity, % of untreated control [16]: 36% | AHAS activity, % of untreated control [17]: 69%

CC(C)C1(C)N=C(c2ncccc2C(=O)O)NC1=O (stereo not shown) [imazapyr]
Phytotoxicity Rating (% Crop Injury) [1, 24]: 8.3% | Phytotoxicity Rating (% Crop Injury) [1, 25]: 5.0% | Phytotoxicity Rating (% Crop Injury) [2, 24]: 8.3% | Phytotoxicity Rating (% Crop Injury) [2, 25]: 21.7% | Phytotoxicity Rating (% Crop Injury) [3, 24]: 3.3% | Phytotoxicity Rating (% Crop Injury) [3, 25]: 0.0% | Phytotoxicity Rating (% Crop Injury) [4, 24]: 8.3% | Phytotoxicity Rating (% Crop Injury) [4, 25]: 3.3% | Phytotoxicity Rating (% Crop Injury) [5, 24]: 35.0% | Phytotoxicity Rating (% Crop Injury) [5, 25]: 43.3% | Phytotoxicity Rating (% Crop Injury) [6, 24]: 10.0% | Phytotoxicity Rating (% Crop Injury) [6, 25]: 23.3% | Phytotoxicity Rating (% Crop Injury) [7, 24]: 5.0% | Phytotoxicity Rating (% Crop Injury) [7, 25]: 1.7% | Phytotoxicity Rating (% Crop Injury) [8, 24]: 13.3% | Phytotoxicity Rating (% Crop Injury) [8, 25]: 11.7% | Phytotoxicity Rating (% Crop Injury) [9, 24]: 21.7% | Phytotoxicity Rating (% Crop Injury) [9, 25]: 36.7% | Phytotoxicity Rating (% Crop Injury) [10, 24]: 5.0% | Phytotoxicity Rating (% Crop Injury) [10, 25]: 1.7% | Phytotoxicity Rating (% Crop Injury) [11, 24]: 16.7% | Phytotoxicity Rating (% Crop Injury) [11, 25]: 20.0% | Phytotoxicity Rating (% Crop Injury) [12, 24]: 3.3% | Phytotoxicity Rating (% Crop Injury) [12, 25]: 0.0% | Phytotoxicity Rating (% Crop Injury) [13, 24]: 8.3% | Phytotoxicity Rating (% Crop Injury) [13, 25]: 3.3% | Phytotoxicity Rating (% Crop Injury) [14, 24]: 11.7% | Phytotoxicity Rating (% Crop Injury) [14, 25]: 6.7% | AHAS activity, % of untreated control [15]: 60% | AHAS activity, % of untreated control [16]: 42% | AHAS activity, % of untreated control [17]: 64%
